Measurements reported in patent US20250222045A1, “BIFIDOBACTERIUM LONGUM SUBSP. INFANTIS, MICROBIAL AGENT AND USE THEREOF” (GUANGZHOU JIYAN COSMETICS TECHNOLOGY CO., LTD., priority 2024, published 2025).

Assays:
[1] = tested on: p16 gene; assay: UVA-irradiated fibroblasts, special dosing: p16 PCR; format: cell-based; conditions: 10 mg/mL
Method: (§1) Cell inoculation: After resuscitation of cells, when a plating rate reached about 60%, the cells were inoculated in 6-well plates, and incubated overnight in the CO2 incubator (37° C., 5% CO2).
(§2) Dosing: When the plating rate of the cells in the 6-well plates reached about 50%˜60%, UVA irradiation of 30 J/cm^2 was performed on groups with UVA irradiation, and after the irradiation was finished, dosing was performed for the groups respectively, with each group in triplicate. […]
(§3) Detection of gene expression: After the incubation was finished, PBS cleaning was performed twice with 1 mL/well, each well was added with 1 mL of RNAiso Plus, to pipet and lyse the cells, after which samples were collected. RNA was extracted and subjected to reverse transcription to cDNA to undergo fluorescence quantitative PCR detection, and result was calculated by the […] method.
(§4) Statistical analysis of results: GraphPad Prism Program software was applied for plotting, and results were expressed as Mean±SD. Comparison between the groups was statistically analyzed using t-test. […]

[2] = tested on: p21 gene; assay: UVA-irradiated fibroblasts, special dosing: p21 PCR; format: cell-based; conditions: 10 mg/mL
Method: as §1, §2, §3, §4

[3] = tested on: NF-κB gene; assay: UVA-irradiated fibroblasts, special dosing: NF-κB PCR; format: cell-based; conditions: Filtrate 0.1%, Lysate 0.5%, Filtrate + lysate 0.3125%, Pro-xylane 10 mg/mL
Method: as §1, §2, §3, §4

[4] = tested on: MMP-1; assay: UVA-irradiated fibroblasts, special dosing (UVA continuous irradiation): MMP1 ELISA; format: cell-based; conditions: Filtrate 1%, Lysate 0.5%, Filtrate + lysate 0.3125%, Pro-xylane 10 mg/mL, Edelweiss 0.625%
Method: as §1
Dosing: When the plating rate of the cells in the 6-well plates reached about 50%˜60%, UVA irradiation of 30 J/cm^2 was performed on groups with UVA irradiation, and after the irradiation was finished, dosing was performed for the groups respectively, with each group in triplicate. The blank control group and the negative control group were added with 2 mL of the culture solution per well, the positive control group was added with 2 mL of the TGF-β1-containing culture solution per well, and the sample group was added with 2 mL of the test sample-containing culture solution at a corresponding concentration per well. After the dosing was completed, the 6-well plates were cultured in the CO2 incubator (37° C., 5% CO2) […] for 24 h. The above operations were repeated for 3 times. […]
as §4

[5] = tested on: IL-1β; assay: Macrophage-based inflammatory factor test (LPS), IL-1β ELISA; format: cell-based; conditions: macrophages, dosed 2 h, then LPS 22 h, BC 2.83, NC 76.40, dexamethasone 0.01%, Filtrate 0.5%, CLR bifida ferment lysate 1%
Method: (§5) <1> Formulation of working solution of positive control group (dexamethason): 2 μL of 10% mother liquor was sucked and dissolved in 2 mL of the culture solution to formulate 0.01% dexamethasone.
(§6) <2> Formulation of 1 μg/mL LPS-containing working solution: 2 mg/mL LPS stock solution was diluted to 1 μg/mL with the test-substance working solution remaining, negative control working solution and positive control working solution, respectively, after the dosing.
(§7) <1> Cell inoculation: the cells were inoculated in 6-well plates at an inoculation density of 2.2×10^5 per well, 2 mL of a cell suspension was added to each well, the inoculated cell culture plates continued to be cultured in the incubator for 24 h (5% CO2, 37° C.).
(§8) <2> Original cell culture solution in the wells was sucked out and discarded. The sample group was added with 1.8 mL of the test substance-containing culture solution at a corresponding concentration per well; the negative control group was added with 1.8 mL of a solvent control culture solution per well; the positive control group was added with 1.8 mL of a positive control culture solution per well; and the blank control group was added with 1.8 mL of a normal culture solution per well.
(§9) <3> After the dosing was completed, the 6-well plates were cultured in a cell incubator (5% CO2, 37° C.) for 2 h. […]

[6] = tested on: PGE2; assay: Keratinocyte-based inflammatory factor test (UVB), PGE2 ELISA; format: cell-based; conditions: keratinocytes, dosed 24 h, UVB 300 mJ/cm^2, 24 h, BC 165.31, NC 492.42, dexamethasone 0.01%, Filtrate 0.3125%, Lysate 1%, Filtrate + lysate 0.0781%, Centella asiatica 0.625 mg/mL
Method: (§10) Cell inoculation: After resuscitation of cells, when a plating rate reached about 60%, the cells were inoculated in 6-well plates, and incubated overnight in a CO2 incubator (37° C., 5% CO2).
(§11) Dosing: According to test groups in TABLE 19, when the plating rate of the cells in the 6-well plates reached about 30%˜50%, dosing was performed for the groups respectively, with each group in triplicate. The blank control group and the negative control group were added with 2 mL of a culture solution per well, the positive control group was added with 2 mL of a dexamethasone-containing culture solution per well, and the sample group was added with 2 mL of a test sample-containing culture solution at corresponding concentration per well. After the dosing was completed, the 6-well plates were cultured in the CO2 incubator (37° C., 5% CO2) for 24 h.
UVB irradiation: after the cells are cleaned in PBS, according to the test groups, remaining groups other than the blank control group were all subjected to UVB irradiation, with an irradiation dosage of 300 mJ/cm^2. […]
(§12) Statistical analysis of results: GraphPad Prism was applied for plotting, and results were expressed as Mean±SD. Comparison between the groups was statistically analyzed using t-test. […]

[7] = tested on: IL-6; assay: Macrophage-based inflammatory factor test (LPS), IL-6 ELISA; format: cell-based; conditions: macrophages, dosed 2 h, then LPS 22 h, BC 0.50, NC 2224.08, dexamethasone 0.01%, Filtrate 0.5%, CLR bifida ferment lysate 1%
Method: as §5, §6, §7, §8, §9

[8] = tested on: 3D epidermal skin model (EpiKutis®); assay: SLS-stimulated 3D epidermal skin model (EpiKutis), tissue morphology H&E; format: cell-based; conditions: 0.1% SLS 30 min, then 24 h, filtrate 5%, lysate 5%, combination 5%, madecassoside 0.625 mg/mL, PC WY14643, FIG. 19
Source text: Tissue morphology: Tissue morphology is microscopic physiological structure analysis of tissues after HE staining. Through the tissue morphology of the model, changes in the skin barrier under different treatment conditions can be seen, for example, after SLS damage, the skin barrier becomes loose, thickness of a living cell layer decreases, and such damage can be ameliorated after treatment with active substances.
1) Formulation of 0.1% SLS working solution: 0.006 g of SLS was weighed and dissolved in 6 mL of a PBS solution, filtered by 0.22 μm, and formulated into the 0.1% SLS working solution for later use.
2) Formulation of working solution of positive control group (50 μM WY14643): 10 μL of 30 mM WY14643 mother liquor was sucked and dissolved in 6 mL of the culture solution to be formulated into 50 μM WY14643. […]
The models for detection of tissue morphology were fixed using 4% paraformaldehyde. After 24 h of fixation, H&E staining detection was performed, photographs were taken under a microscope and observed, and pictures were collected and analyzed.
as §12

[9] = tested on: Keratinocyte; assay: Cell scratch test, keratinocyte cell mobility; format: cell-based; conditions: Filtrate 0.3125%, Lysate 0.5%, Filtrate + lysate 0.0781%, Madecassoside 0.625 mg/mL, B5 1.25 mg/mL
Source text: Cell migration capability is an important capability of repairing after tissue damage. After the tissue damage, the body will initiate repair of a damaged part, including enhancement of longitudinal cell proliferation capability and lateral crawling and migration of cells in surrounding parts of the damage to the damaged part. Cells cover the damaged part by crawling and migration.
as §10
as §11, with “9,” for “19,”, “70%˜80%,” for “30%˜50%,”, “was” for “and the negative control group were”, “an EGF-containing” for “a dexamethasone-containing”, “continued to be” for “were”, “h. […]” for “h.”
Statistical analysis of results: GraphPad Prism was applied for plotting, and results were expressed as Mean±sD. Comparison between the groups was statistically analyzed using t-test. […]

[10] = tested on: Claudin-1 gene; assay: Keratinocyte gene expression PCR: Claudin-1; format: cell-based, human; conditions: keratinocytes (HaCaT), 24 h, 2^−ΔΔCT, BC=1.00; PC VE 0.05%, Filtrate 0.3125%, Lysate 0.5%, Filtrate + lysate 0.0781%, Madecassoside 0.625 mg/mL, CLR lactic acid bacteria 0.5%
Method: Cell inoculation: After resuscitation of the cells, when the plating rate reached about 60%, the cells were inoculated in the 6-well plates, and incubated overnight in the CO2 incubator (37° C., 5% CO2).
Dosing: According to test groups in TABLE 11 to TABLE 17, when the plating rate of the cells in the 6-well plates reached about 40%˜60%, dosing was performed for the groups respectively, with each group in triplicate. The blank control group was added with 2 mL of the culture solution per well, the positive control group was added with 2 mL of a VE-containing culture solution per well, and the sample group was added with 2 mL of the test sample-containing culture solution at a corresponding concentration per well. After the dosing was completed, the 6-well plates were cultured in the CO2 incubator (37° C., 5% CO2) for 24 h. […]
Detection of gene expression: RNA was extracted and subjected to reverse transcription to cDNA to undergo fluorescence quantitative PCR detection, and result was calculated by a 2^−ΔΔCT method.
as §12

**Q.** For `CC(O)C[C@@H]1OC[C@@H](O)[C@H](O)[C@H]1O` (some centres unmarked) [Pro-xylane], which “p16 Down-regulation Rate (vs NC)” value [1] is on record?
**A.** 35.37%

**Q.** And the “p16 gene expression, Mean” value [1]?
**A.** 1.06

**Q.** And the “p21 gene expression, Mean” value [2]?
**A.** 1.88

**Q.** And the “NF-κB gene expression, Inhibition Rate (vs NC)” value [3]?
**A.** 65.13%

**Q.** And the “NF-κB gene expression, Mean” value ([3]; fibroblasts, UVA 30 J/cm^2 then dosing 24 h, repeated 3 times, BC 1.00, NC 1.52, PC TGFβ1 100 ng/mL)?
**A.** 0.53

**Q.** What about the “MMP1 Down-regulation Rate (vs NC)” value [4] of the same compound?
**A.** 17.94%

**Q.** What about the “MMP1 Mean Concentration” value ([4]; fibroblasts, UVA 30 J/cm^2 then dosing 24 h, repeated 3 times, ELISA, BC 359379.29, NC 1075513.35, PC TGFβ1 100 ng/mL) of the same compound?
**A.** 882584.62 pg/mL

**Q.** How did the “IL-1β Mean Concentration” value [5] turn out when `C[C@@H]1C[C@H]2[C@@H]3CCC4=CC(=O)C=C[C@]4(C)[C@@]3(F)[C@@H](O)C[C@]2(C)[C@@]1(O)C(=O)CO` [dexamethasone] was run?
**A.** 8.51 pg/mL

**Q.** And the “PGE2 Mean Concentration” value [6]?
**A.** 159.23 pg/mL

**Q.** What about the “IL-6 Mean Concentration” value [7] of the same compound?
**A.** 193.04 pg/mL

**Q.** What does the source list for Madecassoside?
**A.** Tissue morphology (H&E) compared with the NC group [8]: the phenomenon of living cell damage is obviously ameliorated; Relative Mobility Mean ([9]; keratinocytes, dosed 24 h, 24 h after scratching, BC=1.00, PC EGF 1 ng/mL): 1.02; Relative mobility, Increase Rate ([9]; vs BC): 2.00%; Claudin-1 gene expression, Mean [10]: 0.96
